Measurements from patent publication US20230058623A1, “NOVEL HETEROARYL-TRIAZOLE COMPOUNDS AS PESTICIDES” (Bayer Aktiengesellschaft, priority 2019, published 2023).

Legend:
Type in all cases: in vivo
[1] = test system: adult mosquitoes Anopheles funestus strain FUMOZ-R; test: Anopheles funestus test (ANPHFU surface treatment & contact assay); conditions: surface concentration 20 mg/m^2, exposure 30 minutes, 24 hours after contact, read-out: efficacy (mortality)
Procedure: Anopheles funestus Test (ANPHFU Surface Treatment & Contact Assay)
Solvent: Aceton+2000 ppm rapeseed oil methyl ester (RME)
In order to produce a sufficient, active ingredient containing solution it is necessary to solve the test compound in the solvent-mix (acetone at 2 mg/ml/RME 2000 ppm). This solution is pipetted onto a glazed tile and after evaporation of the acetone, adult mosquitoes of the species Anopheles funestus strain FUMOZ-R (Hunt et al., Med. Vet. Entomol. 2005 September; 19(3): 271-275) are placed onto the dried surface. The exposure time is 30 minutes.
Mortality in percent (%) is determined 24 hours after contact of the insects to the treated surface. 100% mortality means that all tested insects are dead, whereas 0% means that no insect died.

[2] = test system: adult flies Musca domestica strain WHO-N; test: Musca domestica test (MUSCDO surface treatment & contact assay); conditions: 24 hours after contact, read-out: efficacy (mortality); for mortality at 4 mg/m2: surface concentration 4 mg/m^2, exposure 30 minutes; for mortality at 20 mg/m2: surface concentration 20 mg/m^2, exposure 30 minutes
Summary of the method: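 Compound dissolved at 2 mg/ml in acetone with 2000 ppm RME, applied to glazed tile and dried; adult flies exposed on the surface for 30 min. Percent mortality scored 24 h after contact.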

[3] = test system: green peach aphid (Myzus persicae); test: Myzus persicae spray test; conditions: foliar, 120 h, application rate 100 g/ha, after 5 days, Chinese cabbage leaf disks, read-out: activity (mortality)
Summary of the method: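 Percent kill was recorded 5 days after spraying. Test solutions, prepared with solvent and diluted in 1000 ppm emulsifier water, were applied to Brassica pekinensis leaf disks carrying mixed-instar green peach aphids.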

[4] = test system: brown planthopper (Nilaparvata lugens); test: Nilaparvata lugens spray test; conditions: 96 h, application rate 100 g/ha, after 4 days, rice plants
Summary of the method: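 Rice plants sprayed with compound diluted in water containing 1000 ppm emulsifier, then infested with brown planthopper. Mortality (%) scored after 4 days, 100% meaning all insects killed.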

[5] = test system: two spotted spidermite (Tetranychus urticae); test: Tetranychus urticae spray test OP-resistant; conditions: foliar, 144 h, application rate 100 g/ha, after 6 days, French bean leaf disks
Procedure: Tetranychus urticae—Spray Test OP-Resistant
To produce a suitable preparation of active compound, 1 part by weight of active compound is mixed with the stated amount of solvents and is diluted with water, containing an emulsifier concentration of 1000 ppm, to the desired concentration. Further test concentrations are prepared by dilution with emulsifier containing water.
French bean (Phaseolus vulgaris) leaf disks infected with all instars of the two spotted spidermite (Tetranychus urticae) are sprayed with a preparation of the active ingredient of the desired concentration.
After 6 days mortality in % is determined. 100% means all spider mites have been killed and 0% means none of the spider mites have been killed.

[6] = test system: adult cat fleas (Ctenocephalides felis); test: Ctenocephalides felis in-vitro contact test, adult cat flea; conditions: application rate 5 μg/cm^2 (=500 g/ha), after 48 hours, read-out: activity (efficacy: fleas dead or moribund)
Summary of the method: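 After 48 h of room-temperature exposure in tubes whose walls carried dried compound residue (5 μg/cm^2, from 900 ppm acetone solution), adult cat fleas (5-10 per tube) were heat-challenged at 45-50° C up to 5 min. Fleas unable to climb away were counted dead or moribund, expressed as % efficacy.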

[7] = test system: adult mosquitoes Aedes aegypti strain MONHEIM; test: Aedes aegypti test (AEDSAE surface treatment & contact assay); conditions: 24 hours after contact, read-out: efficacy (mortality); for mortality at 4 mg/m2: surface concentration 4 mg/m^2, exposure 30 minutes; for mortality at 20 mg/m2: surface concentration 20 mg/m^2, exposure 30 minutes
Summary of the method: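 Compound in acetone (2 mg/ml) with 2000 ppm RME dried onto glazed tile; adults exposed to the treated surface for 30 min. Percent mortality scored 24 h after contact.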

[8] = test system: cattle ticks (Rhipicephalus microplus) strain Parkhurst, SP-resistant; test: Rhipicephalus (Boophilus) microplus dip test; conditions: 168 h, application rate 100 ppm, egg deposition after 7 days, read-out: activity (efficacy: infertile eggs)
Summary of the method: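 Engorged adult females (8–10 per tube) dipped in aqueous dilutions of a DMSO stock until fully wetted, then held on filter paper in a climate chamber. Fertile egg deposition checked after 7 days, unclear eggs kept to hatching (~42 days); efficacy 100% = all eggs infertile, 0% = all fertile.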

SMILES	mortality at 20 mg/m2 [1] [%]	mortality at 4 mg/m2 [2] [%]	mortality at 20 mg/m2 [2] [%]	mortality at 100 g/ha [3] [%]	mortality at 100 g/ha [4] [%]	mortality at 100 g/ha [5] [%]	pest or weed control at 5 µg/cm2 [6] [%]	mortality at 4 mg/m2 [7] [%]	mortality at 20 mg/m2 [7] [%]	pest or weed control at 100 ppm [8] [%]
CC1CN(C(=O)c2ccc(-n3ncnc3[C@H](C)NC(=O)c3cc(C(F)(F)F)cc(C(F)(F)F)c3)nc2)CC(C)O1 (some centres unmarked) [Example I-5]	80 to 100	80 to 100	80 to 100	100	90	90	100	80 to 100	80 to 100	100
Cc1nc([C@H](C)NC(=O)c2cc(C(F)(F)F)cc(C(F)(F)F)c2)n(-c2ccc(C(=O)N3CCOCC3)cn2)n1 [Example I-9, N-[(1S)-1-{3-methyl-1-[5-(morpholin-4-ylcarbonyl)pyridin-2-yl]-1H-1,2,4-triazol-5-yl}ethyl]-3,5-bis(trifluoromethyl)benzamide]	80 to 100	80 to 100	80 to 100	100	100	100	100	80 to 100	80 to 100	100
